In US20120252773A1, “Method and composition for inhibiting cell proliferation and angiogenesis” (priority 2005, published 2012):

Tests used:
[1] = system: human endometrial Ishikawa cells; assay: Estrogenic activity, alkaline phosphatase, Ishikawa cell-based assay; conditions: 72 hours
Method: Ishikawa cell based assays were run in parallel on human endometrial Ishikawa cells treated with compound (2) or with 2-methoxyestradiol. 2-Methoxyestradiol is a compound reported in the literature as an anti-angiogenic agent. Cells were cultured in 96-well plates for 48 hours in estrogen- and phenol red-free medium (DMEM/Hamm's F12 medium) containing 5% fetal bovine serum stripped of endogenous estrogens with dextran coated charcoal (Sigma). Compound (2) or other test compounds were then added to the cells and culturing was continued for an additional 72 hours. To the control cells (no (2)), 10^−9 M of […] was added. At the end of 72 hours, alkaline phosphatase activity was measured by adding 5 mM p-nitrophenyl phosphate, 0.24 mM MgCl2, and 1 M diethanolamine (pH 9.8) to the cells while the 96-well plates were kept on ice. The plates were then warmed to room temperature, and the yellow color from the production of p-nitrophenol was measured after 2-3 hours using an ELISA plate reader at a wavelength of 405 nm. The estrogenic activity was defined as the alkaline phosphatase activity stimulated by the test compounds alone as a percentage of that stimulated by estradiol at 10^−9 M. Stimulation by estradiol at 10^−9 M was taken as 100%.

[2] = target: T1, Human recombinant estrogen receptor-β (ER-β) (Homo sapiens, UniProt Q92731); assay: Estrogen receptor binding assay, 3H-17β-estradiol displacement, ER-β; conditions: 4° C. overnight
T1 construct: purchased PanVera Corporation (Madison, Wis.)
T1 sequence (Q92731 whole entry): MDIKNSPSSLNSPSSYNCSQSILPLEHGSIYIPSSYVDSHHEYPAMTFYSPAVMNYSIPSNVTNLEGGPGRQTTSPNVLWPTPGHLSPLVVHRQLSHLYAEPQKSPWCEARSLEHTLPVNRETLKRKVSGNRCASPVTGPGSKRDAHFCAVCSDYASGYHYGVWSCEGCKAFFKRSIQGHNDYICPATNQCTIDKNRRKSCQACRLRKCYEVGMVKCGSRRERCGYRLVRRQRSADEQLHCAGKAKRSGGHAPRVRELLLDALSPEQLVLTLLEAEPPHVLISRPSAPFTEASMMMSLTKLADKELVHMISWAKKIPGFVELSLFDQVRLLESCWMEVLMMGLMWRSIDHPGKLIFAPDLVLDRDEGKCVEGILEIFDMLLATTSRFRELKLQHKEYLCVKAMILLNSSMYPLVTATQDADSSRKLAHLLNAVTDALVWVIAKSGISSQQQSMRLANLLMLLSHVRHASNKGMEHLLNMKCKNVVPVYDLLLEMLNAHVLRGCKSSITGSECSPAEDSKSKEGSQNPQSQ
Method: Human recombinant estrogen receptor-α (ER-α) and estrogen receptor-β (ER-β) were obtained from PanVera Corporation (Madison, Wis.) to conduct the binding assay. To measure the binding affinity of (2), various concentrations of (2) or 17β-estradiol were incubated with either ER-α or ER-β receptor in the presence of a fixed amount of ^3H-17β-estradiol at 4° C. overnight. At the end of the incubation, the free- and bound-3H-estradiol were separated following the instructions provided by the manufacturer using hydroxylapatite.

[3] = system: DU-145 cells; assay: Cell cycle analysis by flow cytometry in DU-145 cells; type: cell-based, human; conditions: DU-145, 10 μM
Method: DU-145 cells were treated with 10 μM of (2) for 6, 24, 48, 72, or 96 h. At the end of each time period, cells were hypotonically lysed in DNA staining solution (0.5 mg/ml propidium iodide, 0.1% sodium citrate, and 0.05% Triton X-100). The stained cells were analyzed by flow cytometry (FACS) using software provided by Phoenix Flow System.

[4] = system: Stat-3 (pStat-3, Tyr705); assay: Stat-3 phosphorylation, Western blot, DU-145 cells; type: cell-based, human; conditions: DU-145, 0.5 μM, 48 h
Method: Stat-3 is, therefore, an important molecular target for developing anti-cancer agents. DU-145 cells were treated with 0 (control), 100, or 500 nM of (2) for 48 hours. Western blot analysis was performed using total and phospho-Stat-3 (pStat-3, Tyr705) antibodies from Cell Signal Technology, Inc.

[5] = system: granulation tissue in fibrin Z-chambers; assay: In vivo fibrin-Z chamber assay, wound healing and microvessel density; conditions: rat
Method: An in vivo fibrin-Z chamber assay (K. Amin et al., Cancer Biol. Ther. 2:173-178, (2003) was run to analyze wound healing and microvessel density. Plasminogen-free fibrinogen and thrombin were added to a sterile dual porous chamber through a port. To implant the chambers into rats, the animals were anesthetized with 35 mg/kg of sodium pentobarbital. Two incisions approximately 2 cm in length each were made on the dorsum, one over the mid vertebral and the other over the lower vertebral regions. Pockets were made in the subcutaneous fascia lateral to the incisions using blunt end scissors, and the chambers were placed deep into the pockets. The incision wounds were closed with an autoclip stapling device. Triple antibiotic ointment was applied to the incision area to prevent infection. At 24 h after the implantation, rats began to receive a single daily oral dose of (2) at 0, 3, or 30 mg/kg for 12 days. At the end of 12th day, animals were sacrificed. The chambers were harvested, fixed in 10% formalin overnight, and embedded in paraffin for histological analysis. To determine the effect of (2) on wound healing response, granulation tissue (GT) thickness was measured in microns on H&E-stained cross sections of fibrin Z-chambers using the Zeiss Axioskop II equipped with digital camera (Axiocam) and digital imaging software KS 300. To measure the effect of (2) on microvessel density, immunohistochemistry was performed on 4 μm thick paraffin-embedded sections. The sections were deparaffinized in Hemo-D, rehydrated in graded alcohols, subjected to endogenous peroxidase block in 3% H2O2, boiled in 10% citrate buffer for antigen retrieval, blocked with 5% donkey serum, and placed overnight at 4° C. with primary […] monoclonal antibody at 1:20 dilution. […] Images of three hot spots (×200 fields showing maximal vessel density) were captured from each section and the blood vessels counted using the Zeiss interactive digital imaging software KS300. A total of 15 high-power fields (HPFs, 40×) were counted for vessel density for each group.

[6] = system: mouse transformed fibroblast cell line (L929); assay: Cell growth inhibition, MTT, 7 days, L929; type: cell-based; conditions: L929, 7 days, compared with human cancer cell lines
Method: To measure the inhibitory activity of (2) on growth of HDMVEC cells (Clonetics, San Diego, Calif.), 2,000 cells were seeded in each well of a 96-well plate in […] of EGM medium (Clonetics) supplemented with 5% fetal bovine serum (Sigma). The plate was incubated at 37° C. in a tissue culture incubator for 24 h, and then various concentrations of (2) dissolved in EGM were added to each well in 5-10 μl aliquots. Four wells were used for each concentration. Medium in each well was renewed with fresh test solution added every other day. After 7 days of culture, the viable cells were measured using reagents from an MTT kit (Promega Corporation, Madison, Wis.), using instructions provided by the supplier. The number of viable cells in treated wells relative to those in control wells gave the percentage of inhibition.
Compound (2) was evaluated in several different human cancer cell lines for its effects on cell growth. The human cancer cell lines used (ATCC) were A549 lung cancer cells, U-87 brain cancer cells, SKOV-3 ovarian cancer cells, PC-3 non-androgen dependent prostate cancer cells, and MDA MB-231 estrogen-independent breast cancer cells. Human umbilical vein endothelial cells (HUVEC) and a mouse transformed fibroblast cell line (L929) were also included in the assay for comparison. […]

C[C@@H]1Cc2cc(O)ccc2C2CCC3(C)/C(=C/COCCN(C)C)CCC3C21 (stereo partly drawn) [Compound (2), (E)-3-Hydroxy-7α-methyl-21-[(2-dimethylamino)ethoxy]-19-norpregna-1,3,5(10),17(20)-tetraene]
estrogenic activity (alkaline phosphatase stimulation relative to estradiol at 10^−9 M) [1]: essentially no such activity | binding affinity (relative to non-radiolabeled estradiol, 50% displacement of 3H-estradiol) [2]: 64 | more cells arrested in phase G1 compared with untreated control [3]: about 30% | reduction of tyrosine phosphorylation of Stat-3 [4]: 52% | decrease in granulation tissue thickness ([5]; 3 mg/kg oral once daily for 12 days): about 20% | decrease in granulation tissue thickness ([5]; 30 mg/kg oral once daily for 12 days): more than 35% | decrease in microvessel formation as compared to the control ([5]; oral once daily for 12 days, dose not stated): 30% | effect on growth of L929 mouse fibroblast cells [6]: much less
